Here are results for one molecule from patent US20220249431A1, “ANTIMYCOTIC” (Karl-Franzens-Universität Graz, priority 2019, published 2022).

Molecules are shown by their SMILES. In brackets after ≈: the same amount, converted by molar mass.

Experiment [1] concerns C. albicans SC5314. The experiment is described as follows: C. elegans infection model, worm survival. The class given is in vivo. How it is done: The C. elegans Δglp-4 Δsek-1 strain (generously provided by Valerie Defraine, Centre of Microbial and Plant Genetics, KU Leuven, Belgium) was used for in vivo testing of antifungal activity. Worms were maintained on NGM plates (nematode growth medium; 2.5 g/L Bacto Peptone, 3 g/L NaCl, 17 g/L agar, supplemented with 5 mg/L cholesterol, 1 mM CaCl2), 1 mM MgSO4 and 25 mM KPO4 buffer pH 6.0), seeded with a thin layer of E. coli OP50, at 16° C. and worms were chunked onto fresh plates every three to four days.
Egg collecting was performed by bleaching according to Stiernagle T (“Maintenance of C. elegans”. WormBook. doi: 10.1895/wormbook.1.101 (2006)) and Porta-de-la-Riva M et al. JoVE 64(2012): e4019-e4019). In short, adult worms were collected from plates and treated with a bleaching solution (10 mL household bleach+5 mL 5M NaOH), thereby worms disintegrate and eggs are released. After vigorous shaking for 5 min, M9 medium (3 g/L KH2PO4, 6 g/L Na2HPO4, 5 g/L NaCl, supplemented with 1.25 mM MgSO4) was added and worms were immediately put on ice. After three washing steps, residual eggs were incubated in M9 medium over night at 16° C. on a tube roller. The next day, eggs were collected, transferred onto fresh NGM/OP50 plates and incubated at 25° C. for 3-4 days until nematodes have reached the L3/L4 stage prior to infection.
Synchronized (L3/L4 stage) worms were collected, washed three times with M9 media and spotted onto prepared YPD plates with a thin layer of C. albicans SC5314. […]
For efficacy testing of compounds, 750 μL of the worm suspension were transferred into each well of a 24-well plate and substances were added at indicated concentrations (1% DMSO). Nematodes were immediately counted (t0) and survival was monitored over five days post infection by counting living worms.
To verify the antifungal potential of DHF in vivo, the well-established C. elegans infection model (Breger J, et al. (2007) PLOS Pathog. 3(2): e18.) was used. […] Survival of infected as well as non-infected nematodes was monitored daily over the time period of 5 days (FIG. 2A). […]

Experiment [2] deals with C. albicans. The experiment is described as follows: Minimal inhibitory concentration, planktonic cells (CLSI M27). It is filed as cell-based. Particulars: Candida albicans, growth reduced to 50% of untreated control. On the procedure:
The minimal inhibitory concentration (MIC) was determined following the standard Clinical and Laboratory Standards Institute (CLSI) protocol M27 (Rex JH, and Clinical and Laboratory Standards Institute (2008). Reference method for broth dilution antifungal susceptibility testing of yeasts: approved standard, 3rd ed. National Committee for Clinical Laboratory Standards, Wayne, Pa.) for yeast strains or the standard CLSI protocol […] (Clinical and Laboratory Standards Institute (2008). Reference method for broth dilution antifungal susceptibility testing of filamentous fungi. Clinical and Laboratory Standards Institute, Wayne, Pa.) for filamentous fungi. For yeast strains media was inoculated with an overnight culture to an OD600 of 0.001 (1^04 cells/mL). Serial dilutions of substances were added and cells were incubated at 37° C. without shaking for 48±1 h. MIC tests were performed in flat-bottom 96 well plates (Greiner Bio One, Austria) using 100 μL suspension per well sealed with gas-permeable foils. After incubation, OD490 values were measured using 96-well plate reader and growth capacity was analyzed by setting the corresponding control to 100%. Different flavones were randomly chosen and tested for their effects on planktonic cells and biofilms of C. albicans and C. glabrata to determine corresponding IC50 values (the concentration that is required to reduce growth (minimal inhibitory concentration=MIC) or biofilm formation (biofilm inhibitory concentration=BIC) to 50% compared to the untreated control).

For experiment [3], the system named is C. albicans biofilm. The experiment is described as follows: Biofilm inhibition concentration (CTB staining). The class given is cell-based. Particulars: Candida albicans; C. albicans biofilm formation reduced to 50% of untreated control; read-out: BIC50. How it is done: The biofilm inhibition concentration (BIC) was determined as described in […] et al. (J Antimicrob Chemother 69(2014): 1035-1044). In short, RPMI medium was inoculated with an overnight culture to an OD (optical density) of 0.1, transferred to a U-bottom 96-well plate (MLS, Belgium) and treated with serial dilutions of substances. After the adherence phase (1 h, 37° C.), supernatant was removed, adherent cells were washed with PBS and fresh media (including substances) was added. Biofilms were then allowed to grow for 24 h at 37° C. Formed biofilms were then analyzed for their metabolic activity. Therefore, C. albicans biofilm cells were treated with CTB (cell titer Blue®; Promega, Germany), diluted 1:100 in PBS. After incubation for 1 h at 37° C. in the dark fluorescence intensity was measured using a 96-well plate reader (Ex: 535, Em: 590, sens 65). […] Sigma, Germany or ABCR, Germany) was used instead. Thereby, biofilm cells were treated with an XTT solution (0.25 mg/mL XTT+0.1 μM menadione in PBS) at 37° C. in the dark and OD490 was measured. As for MIC, biofilm inhibition was analyzed by setting the corresponding control to 100%. Different flavones were randomly chosen and tested for their effects on planktonic cells and biofilms of C. albicans and C. glabrata to determine corresponding IC50 values (the concentration that is required to reduce growth (minimal inhibitory concentration=MIC) or biofilm formation (biofilm inhibitory concentration=BIC) to 50% compared to the untreated control).

The MIC50 is the lowest concentration that inhibits either 50% of growth or 50% of the strains tested, depending on the study. Read a high MIC50 as weaker potency. As to `O=c1c(O)c(-c2ccccc2)oc2ccc(O)cc12` [3,6-dihydroxyflavone], in experiment [1] (25 μM 3,6-DHF with 0.125 μM miconazole or 0.5 μM fluconazole, 5 days), the “effect on activity of azoles in vivo (worm survival)” value is “enhances the activity of azoles”. For the same molecule, the “effect on antifungal activity of AMB in vivo (worm survival)” value in experiment [1] (25 μM 3,6-DHF with 0.5 μM AMB, 5 days) is listed as “enhances the antifungal activity of AMB”. The “worms still alive at day 5 post infection” value in experiment [1] (50 μM DHF, single application immediately after infection, infected control 20.5%) was 45.7%. In experiment [2], this molecule came in with an MIC50 of 9.5 ± 0.1 µM (≈ 2.42 µg/mL). The IC50 in experiment [3] was determined as 55.2 ± 8.1 µM.
